Several values for one entry are separate records, joined by “and”; a condition that tells them apart may be missing. Identical values can stand only once.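 Grown in 96-well plates, cells were treated for 48 hours with each compound at five concentrations. Insufficient inhibition: endpoint recorded as highest concentration tested. At the GI50, growth is halved. TGI denotes the concentration required for complete inhibition of growth.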
Assays:
Test in all cases: NCI tumour cell line growth inhibition, 48 h
HT29 colon = system: HT29 colon
UACC-257 melanoma = system: UACC-257 melanoma
HCT-15 colon = system: HCT-15 colon
SNB-19 CNS = system: SNB-19 CNS
SK-OV-3 ovarian = system: SK-OV-3 ovarian
SW-620 colon = system: SW-620 colon
A549 NSCLC = system: A549 NSCLC
SNB-75 CNS = system: SNB-75 CNS
LOX IMVI melanoma = system: LOX IMVI melanoma
SN12C renal = system: SN12C renal

| Structure (SMILES) | TGI (HT29 colon) | TGI (UACC-257 melanoma) | TGI (HCT-15 colon) | TGI (SNB-19 CNS) | TGI (SK-OV-3 ovarian) | TGI (SW-620 colon) | TGI (A549 NSCLC) | TGI (SNB-75 CNS) | TGI (LOX IMVI melanoma) | TGI (SN12C renal) | GI50 (SW-620 colon) | GI50 (SN12C renal) | GI50 (HT29 colon) | GI50 (A549 NSCLC) | GI50 (UACC-257 melanoma) | GI50 (HCT-15 colon) | GI50 (SNB-19 CNS) | GI50 (LOX IMVI melanoma) | GI50 (SK-OV-3 ovarian) |
| --- | --- | --- | --- | --- | --- | --- | --- | --- | --- | --- | --- | --- | --- | --- | --- | --- | --- | --- | --- |
| CC[C@@]1(O)C[C@H](OC2CC(N(C)C)C(OC3CC(O)C(OC4CCC(=O)C(C)O4)C(C)O3)C(C)O2)c2c(cc3c(c2O)C(=O)c2c(O)cccc2C3=O)[C@H]1C(=O)OC (stereo not given in full) | 0.903 µM and 0.318 µM | 0.179 µM and 0.26 µM | 0.436 µM and 0.826 µM | 1.98 µM and 2.21 µM | 1.31 µM and 5.14 µM |  |  |  |  |  |  |  |  |  |  |  |  |  |  |
| O=C(/C=C/c1ccccc1)CC1OC(=O)c2ccccc21 (stereo not given) | > 100 µM | > 100 µM | > 100 µM | > 100 µM | > 100 µM | > 100 µM | > 100 µM | > 100 µM | > 100 µM |  |  |  |  |  |  |  |  |  |  |
| C=CC1[C@H]2COC(C)(C)O[C@@H]2CC(=O)C1(C)C (stereo not given in full) | > 100 µM | > 100 µM |  | > 100 µM |  | > 100 µM | > 100 µM | > 100 µM | > 100 µM | > 100 µM |  |  |  |  |  |  |  |  |  |
| CC(=O)OCC1OC(n2c3c(c(-c4cccc5ccccc45)c(C#N)c2=S)CCCC3)C(OC(C)=O)C(OC(C)=O)C1OC(C)=O (stereo not given) | > 100 µM | > 100 µM | > 100 µM | > 100 µM | > 100 µM | > 100 µM | > 100 µM |  | > 100 µM | > 100 µM |  |  |  |  |  |  |  |  |  |
| COc1cc2c(c(OC)c1OC)-c1ccc(N)c(=O)cc1[C@@H](NC(C)=O)CC2 | 0.0688 µM | > 100 µM | > 100 µM | > 100 µM | > 100 µM | > 100 µM | > 100 µM |  | > 100 µM | > 100 µM | < 0.01 µM | 0.0546 µM | < 0.0159 µM | 0.0563 µM | > 100 µM | 0.358 µM | 0.914 µM | 0.0256 µM | 0.0388 µM |
| CCCCC1CC(c2cccc([N+](=O)[O-])c2)=NO1 (stereo not given) | > 100 µM | > 100 µM | > 100 µM | > 100 µM | > 100 µM | > 100 µM | > 100 µM | > 100 µM |  | > 100 µM |  |  |  |  |  |  |  |  |  |
| CS(=O)(=O)OCCN1CCN(C(=O)c2cccc3c(Nc4ccc(S(=O)(=O)N=C(N)N)cc4)c4ccccc4nc23)CC1 | > 100 µM | > 100 µM | > 100 µM | > 100 µM | > 100 µM |  | > 100 µM | > 100 µM |  | > 100 µM |  |  |  |  |  |  |  |  |  |
| O=C(c1ccccc1)C1CCCCN1C(=O)c1ccccc1 (stereo not given) |  | > 100 µM | > 100 µM | > 100 µM | > 100 µM | > 100 µM | > 100 µM | > 100 µM |  | > 100 µM |  |  |  |  |  |  |  |  |  |
| CCOC(=O)C1(Br)C(c2ccccc2)NC(=O)NC1(C)Br (stereo not given) | > 100 µM | > 100 µM | > 100 µM | > 66 µM | > 100 µM |  | > 100 µM | > 100 µM | > 58.4 µM | > 100 µM |  |  |  |  |  |  |  |  |  |
| CC1CC2CC(=O)CC3(C1)C2CCCN3CCCO (stereo not given) | > 100 µM | > 100 µM |  | > 100 µM | > 100 µM | > 100 µM | > 100 µM | > 100 µM | > 100 µM | > 100 µM |  |  |  |  |  |  |  |  |  |
| C/C(=N\O)c1cccc(Nc2cc(-n3ccnn3)c3ccccc3n2)c1 | 82.5 µM | 27.9 µM | 27.4 µM | > 100 µM | > 100 µM | 50.6 µM | 43.2 µM |  | 30.4 µM | 34 µM | 21.1 µM | 15.4 µM | 2.17 µM | 16.9 µM | 12.9 µM | 13.5 µM | 45.6 µM | 15.4 µM | 30.6 µM |

— PubChem BioAssay (NCI)
